Test results as given in patent US8431166B2, “Composition comprising the extract of Anemarrhena asphodeloides Bunge or the compounds isolated from the same for preventing and treating lipid metabolism disorder” (EWHA University-Industry Collaboration Foundation, priority 2009, dated 2013).
Where two headings read alike, the source gives them in different places.

Tested on: Pre-adipocytes and 3T3-L1 cell
Assay: Inhibitory effect on adipocyte differentiation (Oil-red O staining)
Type: cell-based
Conditions: 3T3-L1, Oil-red O staining; for IC50: day 7, IC50 determined using BioDataFit 1.02, read-out: Inhibitory Activities of Isolated Compound on Adipocyte Differentiation(IC50)
Description: Oil-red O was dissolved in 100% isopropanol, and stirred for about 16 hrs to prepare a 0.3% Oil-red O staining solution. Distilled water was added to the solution at a ratio of 0.3% Oil-red O:distilled water=6:4 (v/v), and mixed with each other. The solution was filtered using 3M paper once, and filtered again using a 0.2 μm syringe filter.
Pre-adipocytes and 3T3-L1 cell (American Tissue Culture. Collection, ATCC) were maintained in DMEM (Dulbecco's Modified Eagle Medium, Gibco-BRL, Grand Island, N.Y., USA) supplemented with 10% bovine calf serum. 4×10^4 of cells were suspended in 0.5 ml and seeded in each well of 24-well plate. The cells were grown to confluence for 48 hrs in the same medium and the medium was replaced with DMEM containing insulin (5 μg/mL), 10 μM rosiglitazone, 1 μM dexamethasone, and 10% fetal bovine serum (FBS) to differentiate adipocytes. […] As a control group, the cells were treated with Resveratrol (Sigma-Aldrich, 3,4′,5-Trihydroxy-trans-stilbene, 5-[(1E)-2-(4-Hydroxyphenyl)ethenyl]-1,3-benzenediol), which is known to inhibit the adipocyte differentiation and prevent diabetes, dissolved in DMSO at the same concentration. The cells were then replaced with 10% FBS/DMEM supplemented with 5 μg/mL insulin after 48 hrs, and also re-treated with each compound. After 48 hrs, the medium was replaced with fresh 10% FBS/DMEM. Day 7 after induction of adipocyte differentiation, the differentiated adipocytes were examined by Oil-red O staining. After removing the culture medium, the cells were gently washed with PBS once, and fixed in 10% formalin at room temperature for 1 hr. […] To wash off the staining solution, the cells were washed with distilled water, and dried (uncapped). After image scanning, the stained cells were treated with 100% isopropanol for 10 min to wash out the staining solution. The absorbance at 500 nm was measured to compare the Oil-red O staining between the compound-treated groups and the control group.

Compound | IC50 | inhibitory effects on adipocyte differentiation (in words) | IC50 (Mus musculus, 168 h)
Oc1ccc(CC2COc3cc(O)ccc3C2)cc1 (stereo not drawn) [Compound 9, 7,4′-Dihydroxyhomoisoflavane] | > 500 µM |  | 
COc1cc(O)ccc1C(=O)/C=C/c1ccc(O)cc1 [Compound 10, 2′-O-Methylisoliquiritigenin] | 41.8 µM | showed inhibitory effects on adipocyte differentiation | 
C=C[C@H](/C=C\c1ccc(O)cc1)c1ccc(O)cc1 [Compound 5, (−)-Nyasol] |  |  | 108 µM
O=C(/C=C/c1ccc(O)cc1)c1ccc(O)cc1O [Compound 8, 2′,4′,4-Trihydroxychalcone] |  | showed inhibitory effects on adipocyte differentiation | 96.4 µM
O=C(C#Cc1ccc(O)cc1)c1ccc(O)cc1 [Compound 3, 1,3-bis(4-hydroxyphenyl)prop-2-yn-1-one] |  | excellent inhibitory effects on adipocyte differentiation even at lower concentration than the control group Resveratrol | 5.3 µM
C=CC(CC(=O)c1ccc(O)cc1)c1ccc(O)cc1 (stereo not drawn) [Compound 7, 1,3-bis-di-p-hydroxyphenyl-4-penten-1-one] | 326 µM |  | 
Cc1c(O)cc2c(c1O)C(=O)/C(=C/c1ccc(O)cc1)CO2 [Compound 1, (E)-5,7-Dihydroxy-3-(4′-hydroxybenzylidene)-6-methylchroman-4-one] |  |  | 336 µM
(−)-4′-O-Methylnyasol [Compound 4] | 45.9 µM | showed inhibitory effects on adipocyte differentiation | 
Oc1ccc(/C=C/c2cc(O)cc(O)c2)cc1 [Resveratrol, 3,4′,5-Trihydroxy-trans-stilbene, reference compound] |  |  | 31.4 µM
Broussonin A [Compound 6] | 74.5 µM |  | 
COc1ccc(CCCc2ccc(O)cc2)c(O)c1 [Broussonin A] |  | showed inhibitory effects on adipocyte differentiation | 
COc1cc(O)cc2c1C(=O)CC(c1ccc(O)cc1)O2 (stereo not drawn) [Compound 12, 4′,7-Dihydroxy-5-methoxyflavanone] |  |  | 260 µM
COc1cc(O)cc(O)c1C(=O)CCc1ccc(O)cc1 [Compound 13, 2′-O-methylphloretin] | > 500 µM |  | 
O=C(/C=C/c1ccc(O)cc1)c1ccc(O)cc1 [Compound 14, 4,4′-Dihydroxychalcon] |  |  | > 500 µM
